In series [1] the test system is Madin Darby canine kidney cell line transfected with human MDR-1 gene. Kind of series: MDR/MDCK bidirectional transwell permeability assay. Type of series: in vitro ADME. As for the experimental part:
(§1) See, Wang, Q. et al, Evaluation of the MDR-MDCK Cell Line As a Permeability Screen For The Blood Brain Barrier, Int. J. Pharm. 288(2) 349-359. The assay is a bidirectional assay in a transwell format system, assessing the permeability of compounds across a Madin Darby canine kidney cell line transfected with human MDR-1 gene. Efflux is assessed based on ratios from the basolateral and apical sides of the chamber.

The subject of series [2] is human MDR-1 (P-gp). The description is as above. Type of series: in vitro ADME, canine. As to conditions: dog. As for the experimental part: as §1

Two compounds from patent US8653108B1, “Oximes for treatment of peripheral and central nervous system exposure to acetyl cholinesterase inhibitors” (priority 2011, dated 2014) can be followed below.

SMILES strings stand for the structures.

By Papp A→B is commonly meant the apparent permeability from the apical to the basolateral side of a cell layer. The low end stands for slow passage, the high end for fast passage. For orientation: Papp B→A means the apparent permeability from the basolateral to the apical side of a cell layer.

Turning to `CS(=O)(=O)[O-].CS(=O)(=O)[O-].ON=Cc1cc[n+](C[n+]2ccc(C=NO)cc2)cc1` [MMB4 DMS], in series [1], the “Brain Penetration Classification” value is reported as “Low”. In addition, the “Papp A-B” value in series [1] (apical to basolateral) is <0.57 ×10⁻⁶ cm/s. For the same compound, in series [1] (basolateral to apical), the “Papp B-A” value was <0.57 ×10⁻⁶ cm/s.

Take `CCN(CC)CCNC(=O)/C=N/O.Cl` [Example 1, N-(2-(diethylamino)ethyl)-2-(hydroxyimino)acetamide hydrochloride]: in series [2] (MDCK-MDR1, apical to basolateral), the Papp A→B is < 0.51 ×10⁻⁶ cm/s. For the same compound, in series [2] (MDCK-MDR1, basolateral to apical), the Papp B→A was < 0.67 ×10⁻⁶ cm/s. The “Brain Penetration Classification” value in series [1] is on record as “Low”.
